Test results reported in ChEMBL document CHEMBL1201862, “PubChem BioAssay data set” (2004).
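Grown in 96-well plates, cells were treated for 48 hours with each compound at five concentrations. Insufficient inhibition: endpoint recorded as highest concentration tested. GI50: concentration for 50% inhibition of growth.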 Calls of active or inactive are those of the source. Cut-off read from the data, not from the text of the source: active = GI50 up to about 1.1 µM and inactive = higher.

Legend:
Assay in all cases: NCI tumour cell line growth inhibition, 48 h
[1] = test system: SF-539
[2] = test system: MDA-N
[3] = test system: HOP-92
[4] = test system: LOX IMVI
[5] = test system: OVCAR-3
[6] = test system: K562
[7] = test system: SN12C
[8] = test system: OVCAR-5
[9] = test system: U-251
[10] = test system: CCRF-CEM
[11] = test system: RPMI-8226
[12] = test system: CAKI-1
[13] = test system: 786-0
[14] = test system: IGROV-1
[15] = test system: SK-MEL-28
[16] = test system: HL-60
[17] = test system: HCT-116
[18] = test system: Hs-578T
[19] = test system: HOP-62
[20] = test system: ACHN

Measured: GI50

O=c1c2ccccc2nc(Nc2cccc(Cl)c2)n1/N=C/C=C/c1ccccc1
inactive: [1] 35.7 µM | [2] > 100 µM | [3] 91.2 µM | [4] > 100 µM | [5] 73.1 µM | [6] > 100 µM | [7] 52.6 µM | [8] > 100 µM | [9] 28.8 µM | [10] > 100 µM | [11] > 100 µM | [12] > 100 µM | [13] 48.5 µM | [14] > 100 µM | [15] > 100 µM | [16] > 100 µM | [17] 60.4 µM | [18] 62.8 µM | [19] 85.5 µM | [20] 50.7 µM

N#Cc1c(Cl)c2ccccc2n2c1nc1ccccc12
inactive: [1] 19.4 µM | [2] 35 µM | [3] 19.7 µM | [4] 10.8 µM | [5] 36.5 µM | [6] 18.9 µM | [7] 25.4 µM | [8] > 100 µM | [9] 92.7 µM | [10] 11.2 µM | [11] 31.3 µM | [12] 21.9 µM | [13] 19.7 µM | [14] 13.9 µM | [15] 79.3 µM | [16] 5.33 µM | [17] 18.3 µM | [18] 17.7 µM | [19] 38 µM | [20] 18 µM

Cn1c2ccccc2c2cc(-c3ccccc3)c3c(c21)C(=O)C=CC3=O
inactive: [1] 27.3 µM | [2] 19.4 µM | [3] 14.5 µM | [4] 18.6 µM | [5] 16.4 µM | [6] 5.31 µM | [7] 21.7 µM | [8] 19 µM | [9] 18.8 µM | [10] 1.59 µM | [11] 2.45 µM | [12] 18.3 µM | [13] 8.15 µM | [14] 22.8 µM | [15] 20.4 µM | [16] 4.52 µM | [17] 20.2 µM | [18] 28.9 µM | [19] 28.8 µM | [20] 19.8 µM

CO[C@H](C)[C@](O)(C(=O)OCC1=CCN2CC[C@@H](O)[C@H]12)C(C)C
inactive: [1] > 100 µM | [2] > 100 µM | [3] > 100 µM | [4] > 100 µM | [5] > 100 µM | [6] > 100 µM | [7] > 100 µM | [8] > 100 µM | [9] > 100 µM | [10] > 100 µM | [11] > 100 µM | [12] > 100 µM | [13] > 100 µM | [14] > 100 µM | [15] > 100 µM | [16] > 10 µM | [17] > 100 µM | [18] > 100 µM | [19] > 100 µM | [20] 73.3 µM

CSC1=C(C#N)C(=O)N(c2ccc(Cl)cc2)C(=O)C1C#N (stereo not given)
inactive: [1] > 100 µM | [2] > 100 µM | [3] 28.9 µM | [4] > 100 µM | [5] > 100 µM | [6] 78.9 µM | [7] > 100 µM | [8] > 100 µM | [9] > 100 µM | [10] 44.9 µM | [11] 33.8 µM | [12] > 100 µM | [13] > 100 µM | [14] > 100 µM | [15] > 100 µM | [16] > 100 µM | [17] > 100 µM | [18] 77.8 µM | [19] > 100 µM | [20] > 100 µM

O=C(O)C(O)C(O)C(O)C(=O)CO (stereo not given)
inactive: [1] > 100 µM | [2] > 100 µM | [3] > 100 µM | [4] > 100 µM | [5] > 100 µM | [6] > 100 µM | [7] > 100 µM | [8] > 100 µM | [9] > 100 µM | [10] > 100 µM | [11] > 100 µM | [12] > 100 µM | [13] > 100 µM | [14] > 100 µM | [15] > 100 µM | [16] > 100 µM | [17] > 100 µM | [18] > 100 µM | [19] > 100 µM | [20] > 100 µM

CC(=O)Oc1cc(S(=O)(=O)Nc2nc(N)n[nH]2)c(S)cc1Cl
inactive: [1] > 100 µM | [2] > 100 µM | [3] > 100 µM | [4] > 100 µM | [5] > 100 µM | [6] > 100 µM | [7] > 100 µM | [8] > 100 µM | [9] > 100 µM | [10] > 100 µM | [11] > 100 µM | [12] > 100 µM | [13] > 100 µM | [14] > 100 µM | [15] > 100 µM | [16] > 100 µM | [17] > 100 µM | [18] > 100 µM | [19] > 100 µM | [20] > 100 µM
